The supplement of paper PMC8671470

How the values were obtained:
Assay in all cases: cell viability (% survival relative to DMSO control); higher = less cytotoxic
Conditions in all cases: 72 h
[1] = tested on: myeloid leukemia patient primary cells Pat.10
Summary of the method: (§1)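 Thawed, Ficoll-purified mononuclear cells from AML or CML patients in RPMI 1640 with 10% FBS were seeded at 10,000 cells/well on 384-well plates pre-printed with 70 compounds at five tenfold concentrations, 1–10,000 nM, in duplicate, for 72 h. Viability was read by CellTiter-Glo and normalised to DMSO and 10 μM proteasome-inhibitor wells. Where given, area under the curve came from four-parameter log-logistic fits (drc, PharmacoGx R packages).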

[2] = tested on: myeloid leukemia patient primary cells Pat.11
Summary of the method: as §1

[3] = tested on: myeloid leukemia patient primary cells Pat.1
Summary of the method: as §1

[4] = tested on: myeloid leukemia patient primary cells Pat.3
Summary of the method: as §1

[5] = tested on: myeloid leukemia patient primary cells Pat.4
Summary of the method: as §1

[6] = tested on: myeloid leukemia patient primary cells Pat.5
Summary of the method: as §1

[7] = tested on: myeloid leukemia patient primary cells Pat.6
Summary of the method: as §1

[8] = tested on: myeloid leukemia patient primary cells Pat.7
Summary of the method: as §1

[9] = tested on: myeloid leukemia patient primary cells Pat.9
Summary of the method: as §1

For `C=CCN(C)CCCCCCOc1ccc(C(=O)c2ccc(Br)cc2)c(F)c1.O=C(O)/C=C/C(=O)O` [Ro 48-8071 fumarate], the cell viability ([1]; 1 nM) was 80.8%, the cell viability ([1]; 10 nM) was 61.7% and the cell viability ([1]; 100 nM) was 63.7%. The cell viability ([1]; 1000 nM) was 73.8%, the cell viability ([1]; 10000 nM) was under 0% and the cell viability ([2]; 1 nM) was 98.4%. For the same compound, the cell viability ([2]; 10 nM) was 100%, the cell viability ([2]; 100 nM) was 97.9% and the cell viability ([2]; 1000 nM) was 96.5%. For the same compound, the cell viability ([2]; 10000 nM) was 72.2%, the cell viability ([3]; 1 nM) was 97.8% and the cell viability ([3]; 10 nM) was 94.5%. The cell viability ([3]; 100 nM) was 97.4%, the cell viability ([3]; 1000 nM) was 82.7% and the cell viability ([3]; 10000 nM) was 37.2%. It also gave a cell viability ([4]; 1 nM) of 55%, a cell viability ([4]; 10 nM) of 59.7% and a cell viability ([4]; 100 nM) of 28.2%. For the same compound, the cell viability ([4]; 1000 nM) was 21.8%, the cell viability ([4]; 10000 nM) was 6.91% and the cell viability ([5]; 1 nM) was 86.4%. The cell viability ([5]; 10 nM) was 92%, the cell viability ([5]; 100 nM) was 88.3% and the cell viability ([5]; 1000 nM) was 88.5%. The cell viability ([5]; 10000 nM) was 56.3%, the cell viability ([6]; 1 nM) was over 100% and the cell viability ([6]; 10 nM) was 61.6%. It also gave a cell viability ([6]; 100 nM) of 73.3%, a cell viability ([6]; 1000 nM) of 73.5% and a cell viability ([6]; 10000 nM) of 0.265%. It also gave a cell viability ([7]; 1 nM) of 99.9%, a cell viability ([7]; 10 nM) of over 100% and a cell viability ([7]; 100 nM) of 87.1%. It also gave a cell viability ([7]; 1000 nM) of 92.9%, a cell viability ([7]; 10000 nM) of 37.7% and a cell viability ([8]; 1 nM) of over 100%. It also gave a cell viability ([8]; 10 nM) of over 100%, a cell viability ([8]; 100 nM) of 85.7% and a cell viability ([8]; 1000 nM) of 61.7%. The cell viability ([8]; 10000 nM) was under 0%, the cell viability ([9]; 1 nM) was 90.4% and the cell viability ([9]; 10 nM) was 69.8%. The cell viability ([9]; 100 nM) was 87.2%, the cell viability ([9]; 1000 nM) was 84.8% and the cell viability ([9]; 10000 nM) was under 0%.
Work on `CN(Cc1cnc2nc(N)nc(N)c2n1)c1ccc(C(=O)N[C@@H](CCC(=O)O)C(=O)O)cc1` [Methotrexate] yielded a cell viability ([1]; 1 nM) of 68.8%, a cell viability ([1]; 10 nM) of 42.2% and a cell viability ([1]; 100 nM) of 80.2%. For the same compound, the cell viability ([1]; 1000 nM) was 23%, the cell viability ([1]; 10000 nM) was 15.2% and the cell viability ([2]; 1 nM) was 96.2%. The cell viability ([2]; 10 nM) was 98.4%, the cell viability ([2]; 100 nM) was 97.3% and the cell viability ([2]; 1000 nM) was 81.7%. The cell viability ([2]; 10000 nM) was 95.5%, the cell viability ([3]; 1 nM) was 99.6% and the cell viability ([3]; 10 nM) was over 100%. The cell viability ([3]; 100 nM) was 87.7%, the cell viability ([3]; 1000 nM) was 72.5% and the cell viability ([3]; 10000 nM) was 92.6%. It also gave a cell viability ([4]; 1 nM) of 46%, a cell viability ([4]; 10 nM) of 95% and a cell viability ([4]; 100 nM) of 40%. It also gave a cell viability ([4]; 1000 nM) of 10.9%, a cell viability ([4]; 10000 nM) of 5.65% and a cell viability ([5]; 1 nM) of 88%. The cell viability ([5]; 10 nM) was 87.6%, the cell viability ([5]; 100 nM) was 70.2% and the cell viability ([5]; 1000 nM) was 73.6%. It also gave a cell viability ([5]; 10000 nM) of 95.8%, a cell viability ([6]; 1 nM) of 98.7% and a cell viability ([6]; 10 nM) of 50.1%. The cell viability ([6]; 100 nM) was 57.6%, the cell viability ([6]; 1000 nM) was under 0% and the cell viability ([6]; 10000 nM) was 46.4%. The cell viability ([7]; 1 nM) was 99.7%, the cell viability ([7]; 10 nM) was 95.8% and the cell viability ([7]; 100 nM) was 97.1%. The cell viability ([7]; 1000 nM) was 67.7%, the cell viability ([7]; 10000 nM) was 92% and the cell viability ([8]; 1 nM) was 94.1%. For the same compound, the cell viability ([8]; 10 nM) was 89.1%, the cell viability ([8]; 100 nM) was 56.6% and the cell viability ([8]; 1000 nM) was 15.2%. The cell viability ([8]; 10000 nM) was 34.5%, the cell viability ([9]; 1 nM) was 51.4% and the cell viability ([9]; 10 nM) was 92.2%. The cell viability ([9]; 100 nM) was 25.9%, the cell viability ([9]; 1000 nM) was 6.38% and the cell viability ([9]; 10000 nM) was 0.492%.
With `Cc1[nH]nc(C(F)(F)F)c1Cc1sc2c(c1C(=O)N1C[C@](C)(O)CO1)c(=O)n(C)c(=O)n2C(C)C` [AZD3965] the cell viability ([1]; 1 nM) was 98.2%, the cell viability ([1]; 10 nM) was 33.4% and the cell viability ([1]; 100 nM) was 85%. The cell viability ([1]; 1000 nM) was 46.5%, the cell viability ([1]; 10000 nM) was 48.7% and the cell viability ([2]; 1 nM) was 93.7%. It also gave a cell viability ([2]; 10 nM) of 91.6%, a cell viability ([2]; 100 nM) of over 100% and a cell viability ([2]; 1000 nM) of over 100%. The cell viability ([2]; 10000 nM) was 88.6%, the cell viability ([3]; 1 nM) was 93.1% and the cell viability ([3]; 10 nM) was 89.5%. It also gave a cell viability ([3]; 100 nM) of 97.5%, a cell viability ([3]; 1000 nM) of 95.2% and a cell viability ([3]; 10000 nM) of 93%. For the same compound, the cell viability ([4]; 1 nM) was 86.2%, the cell viability ([4]; 10 nM) was 76.4% and the cell viability ([4]; 100 nM) was over 100%. The cell viability ([4]; 1000 nM) was 92.3%, the cell viability ([4]; 10000 nM) was 94.2% and the cell viability ([5]; 1 nM) was 87.3%. It also gave a cell viability ([5]; 10 nM) of 98.5%, a cell viability ([5]; 100 nM) of 98.1% and a cell viability ([5]; 1000 nM) of over 100%. For the same compound, the cell viability ([5]; 10000 nM) was over 100%, the cell viability ([6]; 1 nM) was 82.2% and the cell viability ([6]; 10 nM) was 5.69%. The cell viability ([6]; 100 nM) was 65%, the cell viability ([6]; 1000 nM) was 55.7% and the cell viability ([6]; 10000 nM) was 44.5%. It also gave a cell viability ([7]; 1 nM) of 90.7%, a cell viability ([7]; 10 nM) of 83.2% and a cell viability ([7]; 100 nM) of 97.7%. For the same compound, the cell viability ([7]; 1000 nM) was 94.9%, the cell viability ([7]; 10000 nM) was 96.1% and the cell viability ([8]; 1 nM) was 64%. It also gave a cell viability ([8]; 10 nM) of 45.1%, a cell viability ([8]; 100 nM) of 93.6% and a cell viability ([8]; 1000 nM) of 99.9%. The cell viability ([8]; 10000 nM) was 98.5%, the cell viability ([9]; 1 nM) was over 100% and the cell viability ([9]; 10 nM) was 34.8%. For the same compound, the cell viability ([9]; 100 nM) was over 100%, the cell viability ([9]; 1000 nM) was 74.3% and the cell viability ([9]; 10000 nM) was 86.9%.
`Cc1c2c(=O)n(-c3ccccc3Cl)[nH]c2cc(=O)n1Cc1ccccn1` gave a cell viability ([1]; 1 nM) of 27.2%, a cell viability ([1]; 10 nM) of 64.5% and a cell viability ([1]; 100 nM) of 42.2%. It also gave a cell viability ([1]; 1000 nM) of 86.1%, a cell viability ([1]; 10000 nM) of 42.3% and a cell viability ([2]; 1 nM) of 88%. The cell viability ([2]; 10 nM) was 95.7%, the cell viability ([2]; 100 nM) was 88.1% and the cell viability ([2]; 1000 nM) was 99.3%. It also gave a cell viability ([2]; 10000 nM) of 99.1%, a cell viability ([3]; 1 nM) of 53.7% and a cell viability ([3]; 10 nM) of 89.9%. The cell viability ([3]; 100 nM) was 91.5%, the cell viability ([3]; 1000 nM) was 96.7% and the cell viability ([3]; 10000 nM) was 85.5%. The cell viability ([4]; 1 nM) was 25.8%, the cell viability ([4]; 10 nM) was 94.3% and the cell viability ([4]; 100 nM) was 92.2%. The cell viability ([4]; 1000 nM) was over 100%, the cell viability ([4]; 10000 nM) was over 100% and the cell viability ([5]; 1 nM) was 63.6%. For the same compound, the cell viability ([5]; 10 nM) was 90.8%, the cell viability ([5]; 100 nM) was 81.5% and the cell viability ([5]; 1000 nM) was 98.5%. For the same compound, the cell viability ([5]; 10000 nM) was 72.8%, the cell viability ([6]; 1 nM) was 3.33% and the cell viability ([6]; 10 nM) was 9.25%. It also gave a cell viability ([6]; 100 nM) of 36.7%, a cell viability ([6]; 1000 nM) of 81.3% and a cell viability ([6]; 10000 nM) of 85.9%. The cell viability ([7]; 1 nM) was 84.6%, the cell viability ([7]; 10 nM) was 91.1% and the cell viability ([7]; 100 nM) was 91.7%. For the same compound, the cell viability ([7]; 1000 nM) was over 100%, the cell viability ([7]; 10000 nM) was over 100% and the cell viability ([8]; 1 nM) was 13.2%. It also gave a cell viability ([8]; 10 nM) of 82.9%, a cell viability ([8]; 100 nM) of 63.7% and a cell viability ([8]; 1000 nM) of 91%. It also gave a cell viability ([8]; 10000 nM) of over 100%, a cell viability ([9]; 1 nM) of 1.24% and a cell viability ([9]; 10 nM) of 62.4%. For the same compound, the cell viability ([9]; 100 nM) was 54.9%, the cell viability ([9]; 1000 nM) was 100% and the cell viability ([9]; 10000 nM) was 100%.
